# PMC10907560, “Significant reduction of activity retention in the kidneys via optimized linker sequences in radiohybrid-based minigastrin analogs” (EJNMMI Research, 2024)
# Like-named read-outs stand apart in the source and are kept apart here. Numbered stars: 1 amine (or outer) side, 2 acyl side, 3 side chain; on linkers, the order of the positions; unused ones are H or OH. Square brackets hold non-standard residues; d marks the D form. Peptide text beside a SMILES is read from it. * marks the point of attachment. X1 = CC(C)(C)[Si](F)(c1ccc(C[N+](C)(C)CC(=O)*)cc1)C(C)(C)C; DOTA = O=C(O)CN1CCN(CC(=O)O)CCN(CC(=O)*)CCN(CC(=O)O)CC1; d(γGlu) = O=C(O)[C@@H](CCC(=O)[*:2])N[*:1]; 1Nal = N[C@@H](Cc1cccc2ccccc12)C(=O)O; PEG5 = NCCOCCOCCOCCOCCOCCC(=O)O; NMeNle = CCCC[C@H](NC)C(=O)O; PEG4 = NCCOCCOCCOCCOCCC(=O)O; Nle = CCCC[C@H](N)C(=O)O; dDap = NC[C@@H](N)C(=O)O
# What was measured:
# [1] = target: T1, cholecystokinin-2 receptor (CCK-2R) (Rattus norvegicus, UniProt P30553); test: CCK-2R affinity (apparent IC50), competitive binding on AR42J cells; conditions: natLu-labeled peptide, 3 h, 37 °C, [177Lu]Lu-DOTA-PP-F11N (0.3 pmol) as radiolabeled reference
# T1 construct: host or cells: AR42J (rat pancreatic cancer cells)
# T1 sequence (P30553 1-452): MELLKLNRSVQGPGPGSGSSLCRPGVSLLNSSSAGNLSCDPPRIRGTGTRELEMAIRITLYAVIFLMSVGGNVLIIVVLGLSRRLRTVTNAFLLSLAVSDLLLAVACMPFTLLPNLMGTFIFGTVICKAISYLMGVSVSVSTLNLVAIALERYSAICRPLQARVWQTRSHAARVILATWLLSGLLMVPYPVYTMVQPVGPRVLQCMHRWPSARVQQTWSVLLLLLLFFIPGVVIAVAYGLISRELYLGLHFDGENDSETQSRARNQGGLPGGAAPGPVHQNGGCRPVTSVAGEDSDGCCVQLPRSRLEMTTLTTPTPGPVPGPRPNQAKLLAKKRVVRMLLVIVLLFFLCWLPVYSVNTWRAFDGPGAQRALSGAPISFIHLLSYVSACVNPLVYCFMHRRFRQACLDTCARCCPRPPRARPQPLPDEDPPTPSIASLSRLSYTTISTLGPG
# Method: On the next day, medium was removed, cells were washed with PBS (300 µL) and fresh nutrient medium supplemented with 5% BSA (200 µL) was added. The peptide of interest (25 µL in nutrient medium) in increasing concentrations (10^−10 to 10^−4 M) in triplicate as well as [^177Lu]Lu-DOTA-PP-F11N (25 μL, 0.3 pmol) were added to the cells and the assay was incubated for 3 h at 37 °C. Subsequently, the supernatant was collected, cells were washed with PBS (300 µL) and both fractions were unified. Cell lysis was conducted by addition of NaOH (300 µL, 1 N) and incubation for at least 20 min at room temperature. The supernatant was collected, the respective wells were washed with NaOH (300 µL, 1 N) and both fractions were unified. Radioactivity of all fractions collected was quantified using a γ-counter (PerkinElmer Inc., Waltham, United States). Apparent half-maximal inhibitory concentration (IC50) was calculated via the GraphPad PRISM software (GraphPad Software Inc., La Jolla, United States).
# CCK-2R positive rat pancreatic cancer cells AR42J (CLS GmbH, Eppelheim, Germany) were cultivated in monolayers in CELLSTAR® cell culture flask (Greiner Bio-One GmbH, Frickenhausen, Germany) at 37°C in a humidified atmosphere (5% CO2). Therefor, a HERAcell 150i-Incubator (Thermo Fisher Scientific Inc., Waltham, United States) was used. RPMI 1640 medium, supplemented with 5 mM L-Gln 5 mL non-essential amino acids (100×) and 10% FCS, was used for cell nutrition. Detachment of the cells for passaging was conducted with a Dulbecco’s PBS solution supplemented with 0.1% EDTA (v/v). Cell numbers were determined with a Neubauer hemocytometer (Paul Marienfeld, Lauda-Königshofen, Germany). All operations requiring sterile conditions, were accomplished using a MSC-Advantage safety workbench (Thermo Fisher Scientific Inc., Waltham, United States).
# Table S1. Affinity, lipophilicity and human serum albumin binding data of the compounds evaluated. Affinity data were determined on AR42J cells (2.0 × 10^5 cells/well) and [^177Lu]Lu-DOTA-PP-F11N (0.3 pmol/well) as radiolabeled reference (3 h, 37 °C, RPMI 1640, 5 mM L-Gln, 5 mL non-essential amino acids (100×), 10% FCS + 5% BSA (v/v)).
# [2] = Lipophilicity, n-octanol/PBS distribution coefficient logD7.4; format: physicochemical; conditions: 177Lu-labeled peptide; n-octanol/PBS (1/1), n ≥ 5
# Method: For determination of lipophilicity, the respective ^177Lu-Labeled peptide precursor (~ 1 MBq, 10 µL in 0.04 M HCl) was added to a solution of n-octanol/PBS (1/1, v/v, 1 mL) and vigourously mixed for 3 min at room temperature (n ≥ 5). Afterwards both phases were seperated using a Biofuge 15 centrifuge (Heraus Sepatech GmbH, Osterode, Germany) at 9,000 rpm for 5 min. 200 µL aliquots of both layers were collected separately, measured in a γ-counter (Perkin Elmer, Waltham, MA, USA) and the logD7.4 value was obtained.
# [3] = target: T2, Human serum albumin (HSA) (Homo sapiens, UniProt P02768); test: Human serum albumin binding via high performance affinity chromatography (HPAC); format: in vitro ADME; conditions: Chiralpak HSA column, n = 1
# T2 construct: purchased Daicel, Tokyo, Japan H13H-2433
# T2 sequence (P02768 25-609): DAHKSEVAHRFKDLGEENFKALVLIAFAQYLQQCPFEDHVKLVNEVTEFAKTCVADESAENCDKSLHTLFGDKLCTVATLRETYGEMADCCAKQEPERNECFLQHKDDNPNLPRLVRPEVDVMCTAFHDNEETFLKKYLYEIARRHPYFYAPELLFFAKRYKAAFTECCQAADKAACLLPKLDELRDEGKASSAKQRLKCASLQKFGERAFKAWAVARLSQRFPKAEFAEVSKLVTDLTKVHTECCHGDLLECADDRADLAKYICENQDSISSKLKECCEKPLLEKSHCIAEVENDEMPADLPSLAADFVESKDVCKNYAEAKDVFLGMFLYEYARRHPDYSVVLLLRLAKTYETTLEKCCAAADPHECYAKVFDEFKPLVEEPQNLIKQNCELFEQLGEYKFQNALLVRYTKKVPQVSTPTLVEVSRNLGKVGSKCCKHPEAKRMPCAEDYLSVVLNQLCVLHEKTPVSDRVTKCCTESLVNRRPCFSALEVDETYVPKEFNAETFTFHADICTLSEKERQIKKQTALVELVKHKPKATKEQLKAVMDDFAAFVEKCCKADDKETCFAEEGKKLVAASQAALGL
# Method: Human serum albumin (HSA) binding was determined via high performance affinity chromatography (HPAC), according to previously published protocols. Human serum albumin interaction was calculated according to the retention time (n = 1) of our compounds on a Chiralpak HSA column in dependence of nine reference compounds with known HSA interaction.
# Human serum albumin binding was determined via high performance affinity chromatography. Therefore, a Chiralpak HSA column (50 × 3 mm, 5 µm, H13H-2433, Daicel, Tokyo, Japan) was used at a constant flow rate of 0.5 ml/min at room temperature. Mobile phase A consisted of a freshly prepared aqueous solution of NH4OAc (pH = 6.9, 50 mM) and mobile phase B of isopropanol. Calibration of the column was performed daily prior to experiments, by determining the retention times of nine reference substances displaying a HSA binding from 13 to 99%. HPLC gradient for all compounds tested was 100% A (0 to 3 min), followed by 80% A (3 to 40 min). All substances tested, were dissolved in a mixture of A/B (0.5 mg/mL, 1:1, v/v). OriginPro 2016G software (Northampton, United States) was used for non-linear regression and data evaluation.
# [4] = target: T1, cholecystokinin-2 receptor (CCK-2R); conditions: AR42J cells; read-out: apparent IC50; cited from earlier work
# [5] = tested on: AR42J tumor-bearing CB17-SCID mice; conditions: 24 h p.i.; cited from earlier work
Compound,IC50 ([1]; n = 3),logD [2],HSA binding [3],"IC50 ([1]; n = 3, listed as [^natLu]Lu-DOTA-rhCCK-69)",IC50 [4],activity levels in the tumor [5]
"CCCC[C@@H](C(=O)N[C@@H](CC(=O)O)C(=O)N[C@@H](Cc1cccc2ccccc12)C(N)=O)N(C)C(=O)[C@H](Cc1c[nH]c2ccccc12)NC(=O)CCOCCOCCOCCOCCNC(=O)CC[C@@H](NC(=O)CCOCCOCCOCCOCCOCCNC(=O)[C@@H](CNC(=O)C[N+](C)(C)Cc1ccc([Si](F)(C(C)(C)C)C(C)(C)C)cc1)NC(=O)CN1CCN(CC(=O)O)CCN(CC(=O)O)CCN(CC(=O)O)CC1)C(=O)O [[^nat/177Lu]Lu-DOTA-rhCCK-90, DOTA-D-Dap(SiFAlin)-(PEG)4-B, metal not drawn] ({DOTA}-[dDap](X1)[PEG5][d(γGlu)][PEG4]W[NMeNle]D[1Nal]-NH2)",9.9 ± 1 nM,-0.76 ± 0.09,94.5%,,,
"CCCC[C@@H](C(=O)N[C@@H](CC(=O)O)C(=O)N[C@@H](Cc1cccc2ccccc12)C(N)=O)N(C)C(=O)[C@H](Cc1c[nH]c2ccccc12)NC(=O)CCOCCOCCOCCOCCNC(=O)CC[C@@H](NC(=O)CCOCCOCCOCCOCCOCCOCCOCCOCCOCCOCCOCCOCCNC(=O)CC[C@@H](NC(=O)[C@@H](CNC(=O)c1cc(C(=O)O)cc([Si](F)(C(C)(C)C)C(C)(C)C)c1)NC(=O)CN1CCN(CC(=O)O)CCN(CC(=O)O)CCN(CC(=O)O)CC1)C(=O)O)C(=O)O [[^nat/177Lu]Lu-DOTA-rhCCK-69, DOTA-D-Dap(SiFA-ipa)-D-γ-Glu-(PEG)11-B, metal not drawn]",,-2.11 ± 0.09,84.7%,42.1 ± 1.7 nM,,
(R)-DOTAGA-D-Dap(p-SiFA)-(D-γ-Glu)6-Ala-Tyr-Gly-Trp-Nle-Asp-Phe-NH2 ({(R)‑DOTAGA-dDap(p-SiFA)-d(γGlu)-d(γGlu)-d(γGlu)-d(γGlu)-d(γGlu)-d(γGlu)}-AYGW[Nle]DF-NH2; also: 177Lu complex of DOTAGA) [[^177Lu]Lu-(R)-DOTAGA-rhCCK-16],,,,,20.4 ± 2.7 nM,18.0 ± 0.7 %ID/g
